According to US20060193797A1, “Chroman derivatives as lipoxygenase inhibitors” (Galileo Pharmaceuticals, Inc, priority 2005, published 2006):

Columns and labels:
[1] = biological target: T1, human recombinant 5-lipoxygenase (Homo sapiens, UniProt P09917); assay: 5-Lipoxygenase Enzyme Assay (colorimetric, ferric oxidation of xylenol orange); format: biochemical; details: 70 μM arachidonic acid, 10 minute incubation at room temperature, 5 concentrations in triplicate starting at 10 μM; read-out: inhibition of 5-Lipoxygenase, IC50
T1 construct: purchased Cayman 60402
T1 sequence (P09917 1-674): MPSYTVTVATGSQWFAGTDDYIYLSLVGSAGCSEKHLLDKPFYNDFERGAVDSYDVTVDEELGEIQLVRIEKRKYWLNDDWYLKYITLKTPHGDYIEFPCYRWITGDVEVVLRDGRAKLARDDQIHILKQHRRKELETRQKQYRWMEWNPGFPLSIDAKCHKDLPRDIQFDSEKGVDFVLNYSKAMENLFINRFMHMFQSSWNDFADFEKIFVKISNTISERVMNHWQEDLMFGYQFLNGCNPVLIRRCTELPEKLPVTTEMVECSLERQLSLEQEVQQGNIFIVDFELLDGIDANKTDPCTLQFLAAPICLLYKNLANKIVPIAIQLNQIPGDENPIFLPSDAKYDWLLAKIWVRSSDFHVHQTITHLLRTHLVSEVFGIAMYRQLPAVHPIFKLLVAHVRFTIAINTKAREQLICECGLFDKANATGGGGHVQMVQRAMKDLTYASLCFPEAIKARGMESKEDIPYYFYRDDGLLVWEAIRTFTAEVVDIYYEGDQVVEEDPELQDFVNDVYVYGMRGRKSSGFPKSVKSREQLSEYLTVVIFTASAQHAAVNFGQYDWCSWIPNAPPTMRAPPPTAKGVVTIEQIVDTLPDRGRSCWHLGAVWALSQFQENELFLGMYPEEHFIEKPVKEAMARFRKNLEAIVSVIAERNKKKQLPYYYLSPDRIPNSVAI
Method: This procedure was used for measuring the enzymatic activity of human recombinant 5-lipoxygenase using a colorimetric method based on the ferric oxidation of xylenol orange.
Human recombinant 5-lipoxygenase (Cayman Cat # 60402) was used in this assay. The test compound and/or vehicle was added to 0.5 μL 5-lipoxygenase in 50 mM Tris-HCl buffer, pH 7.4. The reaction was initiated by addition of 70 μM arachidonic acid in Tris-HCl buffer, pH 7.4, and terminated after a 10 minute incubation at room temperature by addition of FOX reagent (25 mM sulfuric acid, 100 μM xylenol orange, 100 μM iron (II) sulphate, methanol:water 9:1). The yellow color of acidified xylenol orange was converted to a blue color by the lipid hydroperoxide-mediated oxidation of Fe^2+ ions and the interaction of the resulting Fe^3+ ions with the dye. The complex was allowed to form during a 1 hour incubation at room temperature with shaking. Absorbance of the Fe^3+ complex was then measured at […] using a spectrophotometer.
Negative controls contained enzyme during the incubation step but substrate was not added until after the FOX reagent. Compounds were screened at 5 concentrations in triplicate starting at 10 μM.

[2] = biological target: T2, porcine leukocyte 12/15-lipoxygenase (Sus scrofa, UniProt P16469); assay: 12/15-Lipoxygenase Enzyme Assay (colorimetric, ferric oxidation of xylenol orange); format: biochemical; details: 70 μM arachidonic acid, 10 minute incubation at room temperature, 5 concentrations in triplicate starting at 10 μM; read-out: inhibition of 12/15-Lipoxygenase, IC50
T2 construct: purchased Cayman 60300
T2 sequence (P16469 1-663): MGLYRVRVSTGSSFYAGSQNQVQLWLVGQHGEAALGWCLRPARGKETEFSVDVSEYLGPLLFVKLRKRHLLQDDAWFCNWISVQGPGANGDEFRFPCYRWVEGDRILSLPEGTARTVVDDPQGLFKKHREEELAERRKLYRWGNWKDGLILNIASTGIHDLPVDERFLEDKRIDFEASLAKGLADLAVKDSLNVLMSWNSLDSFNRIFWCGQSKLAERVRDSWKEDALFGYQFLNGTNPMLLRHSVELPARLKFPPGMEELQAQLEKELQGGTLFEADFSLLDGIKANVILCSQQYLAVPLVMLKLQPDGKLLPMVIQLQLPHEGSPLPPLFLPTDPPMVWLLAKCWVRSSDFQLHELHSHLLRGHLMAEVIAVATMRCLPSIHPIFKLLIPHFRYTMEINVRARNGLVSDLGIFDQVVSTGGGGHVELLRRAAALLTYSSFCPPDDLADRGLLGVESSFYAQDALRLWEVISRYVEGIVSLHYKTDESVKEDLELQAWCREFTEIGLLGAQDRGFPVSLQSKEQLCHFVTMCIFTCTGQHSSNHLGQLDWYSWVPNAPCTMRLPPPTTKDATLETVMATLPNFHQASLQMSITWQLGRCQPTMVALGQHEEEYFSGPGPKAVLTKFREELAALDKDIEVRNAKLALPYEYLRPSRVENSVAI
Method: This procedure was used for measuring the enzymatic activity of porcine leukocyte 12/15-lipoxygenase using a colorimetric method based on the ferric oxidation of xylenol orange.
Porcine Leukocyte 12/15-lipoxygenase (Cayman Cat # 60300) was used in this assay. Test compound and/or vehicle were added to 1.3 μL 12/15-lipoxygenase in 50 mM Tris-HCl buffer, pH 7.4. The reaction was initiated by addition of 70 μM arachidonic acid in Tris-HCl buffer, pH 7.4 and terminated after a 10 minute incubation at room temperature by addition of FOX reagent (25 mM sulfuric acid, 100 μM xylenol orange, 100 μM iron (II) sulphate, methanol:water 9:1). The yellow color of acidified xylenol orange was converted to a blue color by the lipid hydroperoxide-mediated oxidation of Fe^2+ ions and the interaction of the resulting Fe^3+ ions with the dye. The complex was allowed to form during a 1 hour incubation at room temperature with shaking. Absorbance of the Fe^3+ complex was then measured at […] using a spectrophotometer.
Negative controls contained enzyme during the incubation step but substrate was not added until after the FOX reagent.
Compounds are screened at 5 concentrations in triplicate starting at 10 μM.

Structure (SMILES) | IC50 [1] | IC50 [2]
Cc1c(C)c2c(c(C)c1O)C(O)CC(C)(C)O2 (centres unmarked) [2,2,5,7,8-pentamethylchroman-4,6-diol] | < 3 µM | < 5 µM
Cc1c(O)cc2c(c1C)OC(C)(C)CC2O (centres unmarked) [2,2,7,8-tetramethylchroman-4,6-diol] | < 3 µM | –
CONC1CC(C)(C)Oc2c(C)c(C)c(O)c(C)c21 (centres unmarked) [4-Methoxyamino-2,2,5,7,8-pentamethyl-chroman-6-ol] | < 3 µM | < 5 µM
Cc1c(C)c2c(c(C)c1O)C(=NN(C)C)CC(C)(C)O2 [6-Hydroxy-2,2,5,7,8-pentamethyl-2,3-dihydro-4H-chromen-4-one dimethylhydrazone] | < 3 µM | –
CON=C1CC(C)(C)Oc2c(C)c(C)c(O)c(C)c21 [6-Hydroxy-2,2,5,7,8-pentamethyl-chroman-4-one O-methyl-oxime] | < 3 µM | < 5 µM
CON=C1CC(C)(C)Sc2c(C)c(C)c(O)c(C)c21 [6-Hydroxy-2,2,5,7,8-pentamethyl-thiochroman-4-one O-methyl-oxime] | < 3 µM | < 5 µM
CO/N=C1/Cc2c(C)c(O)c(C)c(C)c2OC1(C)C [6-hydroxy-2,2,5,7,8-pentamethylchroman-3-one O-methyl oxime] | – | < 5 µM
